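Protocol summary: plate cells (96-well), add compound at 5 concentrations, incubate 48 h, interpolate endpoints linearly. Here, GI50 denotes the concentration required for 50% inhibition of growth.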 Calls of active or inactive are those of the source. Rule as the data show it: active = GI50 up to about 1.1 µM and inactive = higher.
Key:
Assay in all cases: NCI tumour cell line growth inhibition, 48 h
[1] = system: IGROV-1
[2] = system: T47D
[3] = system: KM12
[4] = system: PC-3
[5] = system: MDA-MB-231
[6] = system: SNB-19
[7] = system: NCI-H23
[8] = system: CAKI-1
[9] = system: Malme-3M
[10] = system: OVCAR-8
[11] = system: OVCAR-4
[12] = system: SK-MEL-5
[13] = system: HCC 2998
[14] = system: UO-31
[15] = system: OVCAR-3
[16] = system: HL-60
[17] = system: MDA-N
[18] = system: NCI-H460
[19] = system: SF-539
[20] = system: SR

| Structure (SMILES) | GI50 [1] | GI50 [2] | GI50 [3] | GI50 [4] | GI50 [5] | GI50 [6] | GI50 [7] | GI50 [8] | GI50 [9] | GI50 [10] | GI50 [11] | GI50 [12] | GI50 [13] | GI50 [14] | GI50 [15] | GI50 [16] | GI50 [17] | GI50 [18] | GI50 [19] | GI50 [20] |
| --- | --- | --- | --- | --- | --- | --- | --- | --- | --- | --- | --- | --- | --- | --- | --- | --- | --- | --- | --- | --- |
| Cc1cn([C@@H]2O[C@H](CO[Si](C)(C)C(C)(C)C)[C@]3(O[C@H]3C(=O)NO)[C@H]2O[Si](C)(C)C(C)(C)C)c(=O)[nH]c1=O | 1.71 µM (inactive) | 1.66 µM (inactive) | 1.79 µM (inactive) | 2.26 µM (inactive) | 2.09 µM (inactive) | 1.66 µM (inactive) | 1.91 µM (inactive) | 2.07 µM (inactive) | 2.14 µM (inactive) | 1.79 µM (inactive) | 1.75 µM (inactive) | 1.92 µM (inactive) | 1.61 µM (inactive) | 1.74 µM (inactive) | 1.61 µM (inactive) | 1.61 µM (inactive) | 1.58 µM (inactive) | 1.69 µM (inactive) | 1.5 µM (inactive) |  |
| CSC1=N/C(=C\c2ccco2)C(=O)N1CN1CCOCC1 | > 61.1 µM (inactive) | 48.1 µM (inactive) | > 70.1 µM (inactive) | > 93.8 µM (inactive) | > 63.1 µM (inactive) | > 93.1 µM (inactive) | > 100 µM (inactive) | 32 µM (inactive) | > 46.1 µM (inactive) | 58.9 µM (inactive) | > 100 µM (inactive) | 41.1 µM (inactive) | 25.7 µM (inactive) | > 69.8 µM (inactive) | > 100 µM (inactive) |  | > 100 µM (inactive) | 13.9 µM (inactive) | 17.2 µM (inactive) | 41.3 µM (inactive) |
| CCCCOC(=O)C(O)Cc1ccoc1 (centres undefined) | > 100 µM (inactive) | > 100 µM (inactive) | > 100 µM (inactive) | > 100 µM (inactive) | > 100 µM (inactive) | > 100 µM (inactive) | > 100 µM (inactive) |  | > 100 µM (inactive) | > 100 µM (inactive) | > 100 µM (inactive) | > 100 µM (inactive) | > 100 µM (inactive) | > 100 µM (inactive) | > 100 µM (inactive) | > 100 µM (inactive) | > 100 µM (inactive) | > 100 µM (inactive) | > 100 µM (inactive) |  |
| Cc1[nH]c2ncn3ncnc3c2c1Cc1ccccc1 | 92.7 µM (inactive) | > 100 µM (inactive) | > 100 µM (inactive) | > 100 µM (inactive) | > 100 µM (inactive) | > 100 µM (inactive) | 91.6 µM (inactive) | > 100 µM (inactive) | > 100 µM (inactive) | > 100 µM (inactive) | > 100 µM (inactive) | > 100 µM (inactive) | > 100 µM (inactive) | > 100 µM (inactive) | > 100 µM (inactive) | > 100 µM (inactive) | > 100 µM (inactive) | > 100 µM (inactive) | > 100 µM (inactive) |  |
| c1ccc(-c2sc(-c3ccccc3)c3c2C2CCC3C2)cc1 | 47.1 µM (inactive) | 38.7 µM (inactive) | 30.6 µM (inactive) | 25.5 µM (inactive) | 27.6 µM (inactive) | > 100 µM (inactive) | 33.5 µM (inactive) | 49.9 µM (inactive) | 31.6 µM (inactive) | 32.9 µM (inactive) | > 100 µM (inactive) | 20 µM (inactive) |  | 16 µM (inactive) | 30.6 µM (inactive) | 37.5 µM (inactive) | 43 µM (inactive) | 28.9 µM (inactive) | 26 µM (inactive) | 17.4 µM (inactive) |
| CSc1nn(C)cc2nc(C)nc1-2 | > 100 µM (inactive) | > 100 µM (inactive) | > 100 µM (inactive) | > 100 µM (inactive) | > 100 µM (inactive) | > 100 µM (inactive) | > 100 µM (inactive) | > 100 µM (inactive) |  | > 100 µM (inactive) |  | > 100 µM (inactive) |  | > 100 µM (inactive) | > 100 µM (inactive) | > 100 µM (inactive) | > 100 µM (inactive) | > 100 µM (inactive) | > 100 µM (inactive) | > 100 µM (inactive) |
| C[C@]12CC[C@@H]3c4ccc(OP(=O)(O)O)cc4CC[C@H]3[C@@H]1CCC2=O | > 100 µM (inactive) | 39.6 µM (inactive) | 54.5 µM (inactive) | 62.4 µM (inactive) | 80.7 µM (inactive) | > 100 µM (inactive) | 63.1 µM (inactive) | > 100 µM (inactive) | > 100 µM (inactive) | > 100 µM (inactive) | 50.9 µM (inactive) | 28.4 µM (inactive) | > 100 µM (inactive) | 80.7 µM (inactive) | 62.8 µM (inactive) | 71.4 µM (inactive) | 58.5 µM (inactive) | 91.6 µM (inactive) | 81.8 µM (inactive) |  |
| Clc1ccc2c(NCCCC/N=C/c3ccccc3)ccnc2c1 | 11.8 µM (inactive) | 12.6 µM (inactive) | 7.98 µM (inactive) | 10.4 µM (inactive) | 13.6 µM (inactive) | 14.8 µM (inactive) | 11 µM (inactive) |  | 14.4 µM (inactive) | 11.2 µM (inactive) | 10.5 µM (inactive) | 13.5 µM (inactive) | 14.5 µM (inactive) | 14.8 µM (inactive) | 16.5 µM (inactive) |  | 11.7 µM (inactive) | 11 µM (inactive) | 11.9 µM (inactive) |  |
| CC1(C)O[C@@H](CP(c2ccc3ccccc3c2)c2ccc3ccccc3c2)[C@H](CP(c2ccc3ccccc3c2)c2ccc3ccccc3c2)O1 | 33 µM (inactive) | 78.2 µM (inactive) | 70.1 µM (inactive) | 53.5 µM (inactive) | > 100 µM (inactive) | > 100 µM (inactive) | > 100 µM (inactive) | > 100 µM (inactive) |  | > 100 µM (inactive) | > 100 µM (inactive) | 73.5 µM (inactive) | > 100 µM (inactive) | > 100 µM (inactive) | 58.9 µM (inactive) |  | > 100 µM (inactive) | > 100 µM (inactive) |  | 77.8 µM (inactive) |
| CC(C)(C)c1cc(C(C)(C)C)c(SSc2c(C(C)(C)C)cc(C(C)(C)C)c(O)c2O)c(O)c1O | 12 µM (inactive) | 4.32 µM (inactive) | 12.6 µM (inactive) | 12.4 µM (inactive) | 14.7 µM (inactive) | 11.7 µM (inactive) | 10.3 µM (inactive) | 11.5 µM (inactive) | 21.4 µM (inactive) | 12.3 µM (inactive) | 3.55 µM (inactive) | 11.7 µM (inactive) |  | 6.18 µM (inactive) |  | 3.46 µM (inactive) | 10.4 µM (inactive) | 3.89 µM (inactive) |  | 2.94 µM (inactive) |
| C[n+]1c2ccccc2n2c3ccccc3c(NCc3ccco3)c(C#N)c21 |  | 3.67 µM (inactive) | 2.79 µM (inactive) | 2.23 µM (inactive) | 2.21 µM (inactive) | 3.11 µM (inactive) | 1.46 µM (inactive) | 2.07 µM (inactive) | 2.43 µM (inactive) | 1.24 µM (inactive) | 2.82 µM (inactive) | 2.78 µM (inactive) | 0.659 µM (active) | 1.22 µM (inactive) | 2.7 µM (inactive) | 3.17 µM (inactive) | 1.96 µM (inactive) | 1.1 µM (active) | 0.959 µM (active) |  |
